From publication PMC6116705, “Design, synthesis, in vitro antiproliferative activity and apoptosis-inducing studies of 1-(3′,4′,5′-trimethoxyphenyl)-3-(2′-alkoxycarbonylindolyl)-2-propen-1-one derivatives obtained by a molecular hybridisation approach” (Journal of Enzyme Inhibition and Medicinal Chemistry, 2018)
Read-outs that look alike come from different tables or passages of the source.

Assays:
[1] = test system: human promyelocytic leukemia (HL-60) cells; assay: Antiproliferative assay, cell counting (Coulter Counter), HL-60; assay type: cell-based; conditions: read-out: IC50, inhibition of proliferation
Procedure: (§1) Human cervix carcinoma (HeLa), human colon carcinoma (HT29), human breast carcinoma (MCF-7) and human lymphoma (HL-60) cells (3–5 × 10^4 cells) and a serial (five-fold) dilution of the test compounds were added to a 96-well microtiter plate. The cells were incubated for 72–96 h (depending on the tumor cell line) at 37 °C in a humidified 5% CO2 atmosphere. At the end of the incubation period, the cells were counted in a Coulter Counter (Coulter Electronics Ltd, Harpenden Herts, UK). […] The IC50 values represent the average (±standard deviation) of at least two to four independent experiments.

[2] = test system: human cervix carcinoma (HeLa) cells; assay: Antiproliferative assay, cell counting (Coulter Counter), HeLa; assay type: cell-based; conditions: read-out: IC50, inhibition of proliferation
Procedure: as §1

[3] = test system: human breast adenocarcinoma (MCF-7) cells; assay: Antiproliferative assay, cell counting (Coulter Counter), MCF-7; assay type: cell-based; conditions: read-out: IC50, inhibition of proliferation
Procedure: as §1

[4] = test system: human colon adenocarcinoma (HT29) cells; assay: Antiproliferative assay, cell counting (Coulter Counter), HT29; assay type: cell-based; conditions: read-out: IC50, inhibition of proliferation
Procedure: as §1

bovine brain tubulin = assay: Inhibition of tubulin polymerisation (turbidimetric tubulin assembly); assay type: biochemical; conditions: tubulin 10 µM, 20 min at 30 °C; read-out: Tubulin assembly IC50±SD
Procedure: (§2) To evaluate the effect of the compounds on tubulin assembly in vitro[40], varying concentrations of compounds were preincubated with 10 μM bovine brain tubulin in 0.8M monosodium glutamate (pH adjusted to 6.6 with HCl in a 2.0M stock solution) at 30 °C and then cooled to 0 °C. After addition of 0.4 mM GTP, the mixtures were transferred to 0 °C cuvettes in a recording spectrophotometer and warmed to 30 °C. Tubulin assembly was followed turbidimetrically at 350 nm. […] The capacity of the test compounds to inhibit colchicine binding to tubulin was measured as described. The reaction mixtures contained 1 μM tubulin, 5 μM [^3H]colchicine and 5 μM test compound.

[5] = test system: tubulin (colchicine site); assay: Inhibition of [3H]colchicine binding to tubulin; design: species or system bovine; conditions: tubulin 1 µM, [3H]colchicine 5 µM, compound 5 µM
Procedure: as §2

[6] = test system: U251 glioblastoma cancer cell line; design: method as in PMID 27343855; conditions: read-out: IC50, antiproliferative activity; cited from earlier work
[7] = Homo sapiens, HL-60, reference compounds in nM
[8] = Homo sapiens, reference compounds in nM
[9] = Homo sapiens, MCF7, MCF-7, 72–96 h
[10] = Homo sapiens, HT-29, HT29, 72–96 h

Compound `COc1ccc2c(/C=C/C(=O)c3cc(OC)c(OC)c(OC)c3)c[nH]c2c1` [4a, reference compound] has an IC50 [1, 7] of 23 ± 1 nM, an IC50 [2, 8] of 81 ± 2 nM and an IC50 ([3]; Homo sapiens, MCF7, MCF-7, reference compounds in nM) of 49 ± 4 nM. The IC50 ([4]; Homo sapiens, HT-29, HT29, reference compounds in nM) was 60 ± 3 nM.

For `COc1ccc(/C=C\c2cc(OC)c(OC)c(OC)c2)cc1O` [CA-4, combretastatin A-4, reference compound], the IC50 [1, 7] was 1 ± 0.2 nM, the IC50 (bovine brain tubulin) was […] and the IC50 [2, 8] was 4 ± 1 nM. The “Colchicine binding % ±SD (inhibition)” value [5] was 98 ± 0.9%.

`COC(=O)c1[nH]c2ccccc2c1/C=C/C(=O)c1cc(OC)c(OC)c(OC)c1` [Compound 9a, (E)-Methyl 3-(3-oxo-3-(3,4,5-trimethoxyphenyl)prop-1-en-1-yl)-1H-indole-2-carboxylate] showed an IC50 ([1]; Homo sapiens, HL-60, 72–96 h) of 4400 nM, an IC50 ([2]; Homo sapiens, 72–96 h) of 2000 ± 1000 nM and an IC50 [3, 9] of 1100 ± 400 nM. For the same compound, the IC50 [4, 10] was 7300 ± 1200 nM.

`CCOC(=O)c1[nH]c2ccccc2c1/C=C/C(=O)c1cc(OC)c(OC)c(OC)c1` [Compound 9b, (E)-Ethyl 3-(3-oxo-3-(3,4,5-trimethoxyphenyl)prop-1-en-1-yl)-1H-indole-2-carboxylate] gave an IC50 ([2]; Homo sapiens, 72–96 h) of 2100 ± 800 nM, an IC50 [3, 9] of 1800 ± 1500 nM and an IC50 [4, 10] of 440 ± 330 nM.

Compound `COC(=O)c1[nH]c2ccc(OC)cc2c1/C=C/C(=O)c1cc(OC)c(OC)c(OC)c1` [Compound 9c, (E)-Methyl 5-methoxy-3-(3-oxo-3-(3,4,5-trimethoxyphenyl)prop-1-en-1-yl)-1H-indole-2-carboxylate] has an IC50 ([1]; Homo sapiens, HL-60, 72–96 h) of 27000 ± 1000 nM, an IC50 (bovine brain tubulin) greater than 20 µM and an IC50 ([2]; Homo sapiens, 72–96 h) of 2400 ± 600 nM. For the same compound, the “Colchicine binding % ±SD (inhibition)” value [5] was 5.3 ± 4%, the IC50 [3, 9] was 590 nM and the IC50 [4, 10] was 1000 ± 700 nM.

For `COC(=O)c1c(/C=C/C(=O)c2cc(OC)c(OC)c(OC)c2)c2ccccc2n1C` [Compound 9g, (E)-Methyl 1-methyl-3-(3-oxo-3-(3,4,5-trimethoxyphenyl)prop-1-en-1-yl)-1H-indole-2-carboxylate], the IC50 ([1]; Homo sapiens, HL-60, 72–96 h) was 67000 ± 46000 nM, the melting point was 147 to 149 °C and the IC50 ([2]; Homo sapiens, 72–96 h) was 69000 ± 12000 nM. It also gave an IC50 [3, 9] of 6700 ± 3000 nM and an IC50 [4, 10] of 10000 ± 4000 nM.

`CCOC(=O)c1c(/C=C/C(=O)c2cc(OC)c(OC)c(OC)c2)c2ccccc2n1C` [Compound 9h, (E)-Ethyl 1-methyl-3-(3-oxo-3-(3,4,5-trimethoxyphenyl)prop-1-en-1-yl)-1H-indole-2-carboxylate] showed an IC50 ([1]; Homo sapiens, HL-60, 72–96 h) of 58000 ± 40000 nM, a melting point of 138 to 140 °C and an IC50 ([2]; Homo sapiens, 72–96 h) of 41000 ± 11000 nM. The IC50 [3, 9] was 8300 ± 2300 nM and the IC50 [4, 10] was 5000 ± 1400 nM.

`COC(=O)c1c(/C=C/C(=O)c2cc(OC)c(OC)c(OC)c2)c2cc(OC)ccc2n1C` [Compound 9i, (E)-Methyl 5-methoxy-1-methyl-3-(3-oxo-3-(3,4,5-trimethoxyphenyl)prop-1-en-1-yl)-1H-indole-2-carboxylate] gave an IC50 ([1]; Homo sapiens, HL-60, 72–96 h) of 28000 ± 3000 nM, a melting point of 150 to 151 °C and an IC50 ([2]; Homo sapiens, 72–96 h) of 25000 ± 3000 nM. The IC50 [3, 9] was 2700 ± 900 nM and the IC50 [4, 10] was 22000 ± 1000 nM.

`COC(=O)c1c(/C=C/C(=O)c2cc(OC)c(OC)c(OC)c2)c2ccc(OC)cc2n1C` [Compound 9j, (E)-Methyl 6-methoxy-1-methyl-3-(3-oxo-3-(3,4,5-trimethoxyphenyl)prop-1-en-1-yl)-1H-indole-2-carboxylate] gave an IC50 ([1]; Homo sapiens, HL-60, 72–96 h) of 14000 ± 10000 nM, a melting point of 135 to 136 °C and an IC50 ([2]; Homo sapiens, 72–96 h) of no less than 100000 nM. The IC50 [3, 9] was 11000 ± 4000 nM and the IC50 [4, 10] was 31000 ± 22000 nM.

`CCn1c(C(=O)OC)c(/C=C/C(=O)c2cc(OC)c(OC)c(OC)c2)c2ccccc21` [Compound 9k, (E)-Methyl 1-ethyl-3-(3-oxo-3-(3,4,5-trimethoxyphenyl)prop-1-en-1-yl)-1H-indole-2-carboxylate] showed an IC50 ([1]; Homo sapiens, HL-60, 72–96 h) of 37000 ± 1000 nM, a melting point of 115 to 117 °C and an IC50 ([2]; Homo sapiens, 72–96 h) of 9400 ± 3100 nM. It also gave an IC50 [3, 9] of 11000 ± 10000 nM and an IC50 [4, 10] of 6700 ± 1200 nM.

Work on `CCn1c(C(=O)OC)c(/C=C/C(=O)c2cc(OC)c(OC)c(OC)c2)c2cc(OC)ccc21` [Compound 9l, (E)-Methyl 1-ethyl-5-methoxy-3-(3-oxo-3-(3,4,5-trimethoxyphenyl)prop-1-en-1-yl)-1H-indole-2-carboxylate] yielded an IC50 ([1]; Homo sapiens, HL-60, 72–96 h) of 26000 ± 15000 nM, a melting point of 141 to 142 °C and an IC50 ([2]; Homo sapiens, 72–96 h) of 6800 ± 2600 nM. For the same compound, the IC50 [3, 9] was 93000 ± 1000 nM and the IC50 [4, 10] was 10000 ± 6000 nM.

`CCOC(=O)c1c(/C=C/C(=O)c2cc(OC)c(OC)c(OC)c2)c2cc(OC)ccc2n1CC` [Compound 9m, (E)-Ethyl 1-ethyl-5-methoxy-3-(3-oxo-3-(3,4,5-trimethoxyphenyl)prop-1-en-1-yl)-1H-indole-2-carboxylate] showed an IC50 ([1]; Homo sapiens, HL-60, 72–96 h) of 19000 ± 10000 nM, a melting point of 160 to 161 °C and an IC50 ([2]; Homo sapiens, 72–96 h) of 24000 ± 2000 nM. The IC50 [3, 9] was 26000 ± 4000 nM and the IC50 [4, 10] was 14000 ± 6000 nM.

`CCn1c(C(=O)OC)c(/C=C/C(=O)c2cc(OC)c(OC)c(OC)c2)c2ccc(OC)cc21` [Compound 9n, (E)-Methyl 1-ethyl-6-methoxy-3-(3-oxo-3-(3,4,5-trimethoxyphenyl)prop-1-en-1-yl)-1H-indole-2-carboxylate] gave an IC50 ([1]; Homo sapiens, HL-60, 72–96 h) of 47000 ± 11000 nM, a melting point of 157 to 158 °C and an IC50 ([2]; Homo sapiens, 72–96 h) of 24000 ± 15000 nM. The IC50 [3, 9] was 36000 ± 23000 nM and the IC50 [4, 10] was 19000 ± 9000 nM.

With `COC(=O)c1c(/C=C/C(=O)c2cc(OC)c(OC)c(OC)c2)c2ccccc2n1Cc1ccccc1` [Compound 9o, (E)-Methyl 1-benzyl-3-(3-oxo-3-(3,4,5-trimethoxyphenyl)prop-1-en-1-yl)-1H-indole-2-carboxylate] the IC50 ([1]; Homo sapiens, HL-60, 72–96 h) was 41000 ± 25000 nM, the melting point was 166 to 168 °C and the IC50 ([2]; Homo sapiens, 72–96 h) was 8200 ± 1500 nM. It also gave an IC50 [3, 9] of 71000 ± 18000 nM and an IC50 [4, 10] of 11000 ± 6000 nM.

`CCOC(=O)c1c(/C=C/C(=O)c2cc(OC)c(OC)c(OC)c2)c2ccccc2n1Cc1ccccc1` [Compound 9p, (E)-Ethyl 1-benzyl-3-(3-oxo-3-(3,4,5-trimethoxyphenyl)prop-1-en-1-yl)-1H-indole-2-carboxylate] gave an IC50 ([1]; Homo sapiens, HL-60, 72–96 h) of 9000 ± 5100 nM, a melting point of 128 to 130 °C and an IC50 ([2]; Homo sapiens, 72–96 h) of 61000 ± 41000 nM. It also gave an IC50 [3, 9] of 50000 ± 4000 nM and an IC50 [4, 10] of 9200 ± 4700 nM.

Compound `COC(=O)c1c(/C=C/C(=O)c2cc(OC)c(OC)c(OC)c2)c2cc(OC)ccc2n1Cc1ccccc1` [Compound 9q, (E)-Methyl 1-benzyl-5-methoxy-3-(3-oxo-3-(3,4,5-trimethoxyphenyl)prop-1-en-1-yl)-1H-indole-2-carboxylate] has an IC50 ([1]; Homo sapiens, HL-60, 72–96 h) of 39000 ± 27000 nM, a melting point of 170 to 171 °C and an IC50 ([2]; Homo sapiens, 72–96 h) of 15000 ± 7000 nM. The IC50 [3, 9] was 48000 ± 8000 nM and the IC50 [4, 10] was 18000 ± 10000 nM.

In the case of `COc1ccc2[nH]c(C)c(/C=C/C(=O)c3cc(OC)c(OC)c(OC)c3)c2c1` [compound 3], the IC50 [6] is given as greater than 10 µM.

For “(E)-Methyl 1-benzyl-6-methoxy-3-(3-oxo-3-(3,4,5-trimethoxyphenyl)prop-1-en-1-yl)-1H-indole-2-carboxylate [Compound 9r]”, the IC50 ([1]; HL-60, 72–96 h) was 32000 ± 3000 nM, the IC50 ([2]; 72–96 h) was 26000 ± 4000 nM and the IC50 ([3]; MCF-7, 72–96 h) was 28000 ± 3000 nM. It also gave an IC50 ([4]; HT29, 72–96 h) of 27000 ± 2000 nM.
